Our source for the melting point values is patent US6426357B1, “Antagonists of follicle stimulating hormone activity” (Affymax, Inc., priority 1999, dated 2002).

A word on the melting point: it is the temperature of the solid-liquid transition. On to `NC(=O)CCN1C(=O)[C@@H](CC(=O)NCCc2ccc(Br)cc2)S[C@H]1c1ccc(C#Cc2ccccc2)s1` (relative stereo) [Example 13, 3-[(2S*,5R*)-5-{[2-(4-Bromo-phenyl)-ethylcarbamoyl]-methyl}-4-oxo-2-(5-phenylethynyl-thiophen-2-yl)-thiazolidin-3-yl]-propionamide], for which the melting point fell in the range of 241 to 243 °C.
